Values of other authors as cited in patent US20230220443A1, “CHARACTERIZATION OF S-ADENOSYL-L-METHIONINE-CONSUMING ENZYMES WITH 1-STEP EZ-MTASE: A UNIVERSAL COUPLED-ASSAY” (ALBERT EINSTEIN COLLEGE OF MEDICINE, priority 2017, published 2023).

Target: T1, GsSDMT (Galdieria sulphuraria, UniProt M2XPA0)
T1 sequence (M2XPA0 2-297): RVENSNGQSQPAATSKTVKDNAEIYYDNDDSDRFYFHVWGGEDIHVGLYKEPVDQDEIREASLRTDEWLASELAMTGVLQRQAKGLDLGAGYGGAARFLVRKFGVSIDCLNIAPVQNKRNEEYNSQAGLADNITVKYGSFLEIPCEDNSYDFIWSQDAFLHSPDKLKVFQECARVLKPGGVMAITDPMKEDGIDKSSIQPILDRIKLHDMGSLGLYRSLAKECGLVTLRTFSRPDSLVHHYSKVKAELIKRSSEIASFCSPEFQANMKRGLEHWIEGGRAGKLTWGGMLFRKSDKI
Settings: lit. (54); cited from earlier work

For `C[S+](CC[C@H](N)C(=O)O)C[C@H]1O[C@@H](n2cnc3c(N)ncnc32)[C@H](O)[C@@H]1O` (stereo partly drawn) [SAM, S-adenosyl-L-methionine], the kcat is listed as 0.867 ± 0.067 s⁻¹.
